# Source: US7078554B2, “Detection of glucose in solutions also containing an alpha-hydroxy acid or a beta-diketone” (Sensors for Medicine and Science, Inc., priority 2001, dated 2006)
# What was measured:
# [1] = Effect of lactate in solution on the dose response effect of glucose on fluorescence; conditions: 75 μM in PBS, 0–10 mM glucose with 0, 2 or 5 mM lactate, excitation 365 nm (FIG. 3)
# Method: Spectra were recorded using a Shimadzu RF-5301 spectrafluorometer with excitation @365 nm; excitation slits at 1.5 nm; emission slits at 1.5 nm; ambient temperature. All points measured in triplicate, with ±1 SD error bars included.
# The hydrogel film (100 μm thickness, 8 mm diameter disk) was mounted in a PMMA cuvette at a 45° angle. All measurements were made at 37° C. in a Shimadzu RF-5301 spectrofluorometer with excitation at 370 nm (slit=3 nm) and emission at 430 nm (slit=3 nm) at low PMT sensitivity. Glucose and L-sodium lactate concentrations were checked using the YSI Model 2300 STAT plus glucose analyzer. Error bars are standard deviation with triplicate values for each data point.
# The hydrogel film (100 μm thickness, 8 mm diameter disk) was mounted in a PMMA cuvette at a 45° angle. All measurements were made at 37° C. in a Shimadzu RF-5301 spectrofluorometer with excitation at 370 nm (slit=3 nm) and emission at 430 nm (slit=3 nm) at low PMT sensitivity. Glucose and L-sodium lactate concentrations were checked using the YSI Model 2300 STAT plus glucose analyzer. The data is plotted as the average of triplicate values for each data point.
# [2] = Modulation of fluorescence with lactate
# [3] = Modulation of fluorescence with glucose
# Solubility = assay type: physicochemical; conditions: solvents in which soluble
# [4] = aqueous association with glucose; cited from earlier work
compound,measurement,setting,value
"O=C(O)CCN(Cc1ccccc1B(O)O)Cc1c2ccccc2c(CN(CCC(=O)O)Cc2ccccc2B(O)O)c2ccccc12 [9,10-bis[N-(2-boronobenzyl)-N-[2-(carboxyethyl)amino]-methyl]anthracene]",effect of lactate on the fluorescence modulation (at 428 nm) by glucose,[1],did not substantially affect
"CN(CCNc1ccc2c3c(cccc13)C(=O)N(CCNC(=O)c1cc(B(O)O)cc([N+](=O)[O-])c1)C2=O)Cc1ccccc1B(O)O [Example 10, N-(3-Borono-5-nitrobenzamido)ethyl-4-(N′-aminoethylene-N″-[2-(borono)benzyl]methylamino)naphthalene-1,8-dicarboximide]","normalized fluorescence emission (I/I0 at 530 nm), effect of lactate","[2]; in MeOH/PBS (50/50 vol. %), pH 7.4, 0–7 mM L-sodium lactate, excitation 430 nm (FIG. 13)",not by the presence of lactate
same,"normalized fluorescence emission (I/I0 at 525 nm), effect of glucose","[3]; in MeOH/PBS (50/50 vol. %), pH 7.4, 0–50 mM glucose, excitation 430 nm (FIG. 12)",affected by the presence of glucose
"C=C(C)C(=O)NCCCN(Cc1ccccc1B(O)O)Cc1c2ccccc2c(CN(CCC(=O)O)Cc2ccccc2B(O)O)c2ccccc12 [Example 12, 9-[N-(2-boronobenzyl)-N-[3-(methacrylamido)propylamino]methyl]-10-[N-(2-boronobenzyl)-N-[2-(carboxyethyl)amino]methyl]anthracene]",Solubility,Solubility,"PBS/methanol, methanol, ethanol, chloroform, dichloromethane"
C=C(C)C(=O)NCCCN(Cc1ccccc1B1OC(C)(C)C(C)(C)O1)Cc1c2ccccc2c(CN(CCC(=O)NCCCCCCNC(=O)c2c3ccccc3cc3ccccc23)Cc2ccccc2B2OC(C)(C)C(C)(C)O2)c2ccccc12 [Example 13],Solubility,Solubility,"PBS/methanol, methanol, ethanol, chloroform, dichloromethane"
OB(O)c1ccccc1 [phenylboronic acid],Kd,[4],9.1 mM
"N-2-[6-N-(N-4-dimethylaminobenzyl)-6-N-[2-(borono)benzyl]aminohexyl]-[2-(borono)benzyl]amino-ethyl-4-butylamino-1,8-naphthalimide [Example 5]","normalized fluorescence emission (I/Io @ 535 nm), effect of lactate","[2]; 0.015 mM in 70/30 MeOH/PBS, 0–20 mM lactate, excitation 450 nm (FIG. 5)",not substantially affected by the presence of lactate
same,"normalized fluorescence emission (I/Io @ 535 nm), effect of glucose","[3]; 0.015 mM in 70/30 MeOH/PBS, 0–20 mM glucose, excitation 450 nm (FIG. 5)",affected by the presence of glucose
